These are literature values, as cited in patent US7329419B2, “Herbal supplement to support weight loss” (Herbalife International, Inc., priority 2004, dated 2008).

For one data set, the system named is muscle tissues. The note with it: animal studies.

For the substance epigallocatechin-3-gallate [EGCG], the increase in metabolism entry (compared to control) is reported as “approximately 5%”. For the same substance, where the note is “in vivo”, the respiratory quotient result is “lowers the respiratory quotient”.
On to Gingerols, for which the “energy expenditure (metabolic rate) in muscle tissues” value with muscle tissues is recorded as “increase energy expenditure”.
